Data taken from US20060035966A1, “Irreversible selective androgen receptor modulators and methods of use thereof” (priority 2002, published 2006).
Read-outs that look alike come from different tables or passages of the source.

Legend:
[1] = test system: DU 145 prostate cancer cell line; assay: Cytotoxicity, SRB assay, DU 145; assay type: cell-based, human
Experimental: (§1) The SRB Assay was used to determine cell number during cytotoxocity experiments. The following protocol was used: • 1. […] Experimental cultures were cultured in 96-well microtiter plates (200 uL growth medium per well; 1,000-200,000 cells per well). • 3. Cultures were fixed with 50 uL 50% TCA (4° C.). (see cell fixation protocol for details). • 4. Fixed cells were stained with 50 uL 0.4% (wt/vol) SRB in 1% acetic acid for 10 minutes. • 5. SRB was removed and the cultures were quickly* rinsed 5 times with 1% acetic acid to remove unbound dye.** • 6. Cultures were air-dried overnight until there is no visible moisture. • 7. […] Absorbance was read at 540 nm. • * quickly performing rinsing process is to prevent desorption of protein-bound SRB • ** completely remove residual wash solution by sharply flicking plates over sink. Fixation of Cells Attached to the Plastic Substratum
(§2) The following protocol was used for fixing cells: • a. 50 uL of 50% TCA (4° C.) were gently layered on the top of growth medium in each well to make a final TCA concentration of 10%. • b. Cultures were incubated at 4° C. for 1 hour. • c. Cultures were washed 5 times with tap water to remove TCA, growth medium, low-molecular-weight metabolites, and serum protein. • d. Plates were air-dried until there was no visible moisture.

[2] = test system: PC-3 bone metastatic prostate cancer cell line; assay: Cytotoxicity, SRB assay, PC-3; assay type: cell-based, human
Experimental: PPC-1, LNCaP, TSU, PC-3, and DU145 were grown in PRMI-1640 medium containing 2 mM L-glutamine supplemented with 10% fetal bovine serum (FBS). Cells were maintained in a 5% CO2/95% air humidified atomosphere at 37° C.
(§3) The SRB Assay was used to determine cell number during cytotoxocity experiments. The following protocol was used: • 1. Cells were detached with 0.25% trypsin. • 2. Experimental cultures were cultured in 96-well microtiter plates (200 uL growth medium per well; 1,000-200,000 cells per well). • 3. Cultures were fixed with 50 uL 50% TCA (4° C.). (see cell fixation protocol for details). • 4. Fixed cells were stained with 50 uL 0.4% (wt/vol) SRB in 1% acetic acid for 10 minutes. • 5. SRB was removed and the cultures were quickly* rinsed 5 times with 1% acetic acid to remove unbound dye.** • 6. Cultures were air-dried overnight until there is no visible moisture. • 7. The cellular protein-bound SRB was dissolved with 200 uL unbuffered Tris base (10 mM, pH 10.5) for 30 minutes on a rocking platform shaker. • 8. Absorbance was read at 540 nm. • * quickly performing rinsing process is to prevent desorption of protein-bound SRB • ** completely remove residual wash solution by sharply flicking plates over sink. Fixation of Cells Attached to the Plastic Substratum
as §2

[3] = test system: TSU prostate cancer cell line; assay: Cytotoxicity, SRB assay, TSU; assay type: cell-based, human; conditions: read-out: IC50 TSU
Experimental: as §1, §2

[4] = test system: PPC-1 prostate cancer cell line; assay: Cytotoxicity, SRB assay, PPC-1; assay type: cell-based, human
Experimental: as §1, §2

[5] = test system: AR-expressing LNCaP prostate cancer cell line; assay: Cytotoxicity, SRB assay, LNCaP; assay type: cell-based, human
Experimental: as §1, §2

[6] = test system: TCCSUP bladder cancer cell line; assay: Cytotoxicity, SRB assay, TCCSUP; assay type: cell-based, human; conditions: read-out: IC50 TCCSUP
Experimental: as §1, §2

[7] = test system: HT-29 colorectal adenocarcinoma cell line; assay: Cytotoxicity, SRB assay, HT-29; assay type: cell-based, human
Experimental: as §1, §2

[8] = test system: CV-1 control cell line; assay: Cytotoxicity, SRB assay, CV-1 control; assay type: cell-based, African green monkey
Experimental: as §3, §2

[9] = test system: MCF-7 breast adenocarcinoma cell line; assay: Cytotoxicity, SRB assay, MCF-7; assay type: cell-based; conditions: Homo sapiens, Example 4
Experimental: as §3, §2

[10] = test system: LNCaP cells; assay: Induction of apoptosis, LNCaP; assay type: cell-based, human
Experimental: (§4) The ability of DJ 1-31, DJ 1-29, S-NTBA and Compound V to induce apoptosis in different prostate cancer cell lines (DU 145, PC-3, TSU, PPC-1 and LNCaP), in other cancer cell lines (TCCSUP, HT-29 and MCF-7) and in a control cell line (CV-1) was determined and the results are shown in Table 6.

[11] = test system: DU 145 cells; assay: Induction of apoptosis, DU 145; assay type: cell-based, human
Experimental: as §4

[12] = test system: PC-3 cells; assay: Induction of apoptosis, PC-3; assay type: cell-based, human
Experimental: as §4

[13] = test system: PPC-1 cells; assay: Induction of apoptosis, PPC-1; assay type: cell-based, human
Experimental: as §4

[14] = test system: TSU cells; assay: Induction of apoptosis, TSU; assay type: cell-based, human
Experimental: as §4

[15] = test system: HT-29 cells; assay: Induction of apoptosis, HT-29; assay type: cell-based, human
Experimental: as §4

[16] = test system: TCCSUP cells; assay: Induction of apoptosis, TCCSUP; assay type: cell-based, human
Experimental: as §4

[17] = test system: MCF-7 cells; assay: Induction of apoptosis, MCF-7; assay type: cell-based
Experimental: as §4

[18] = test system: CV-1 cells; assay: Induction of apoptosis, CV-1; assay type: cell-based, African green monkey
Experimental: as §4

[19] = Homo sapiens, DU-145, read-out: IC50 DU145
[20] = Homo sapiens, read-out: IC50 PC-3
[21] = Homo sapiens, PPC-1, read-out: IC50 PPC-1
[22] = Homo sapiens, LNCaP, 24 h, read-out: IC50 LNCaP 24 hr treatment
[23] = Homo sapiens, LNCaP, 144 h, read-out: IC50 LNCaP 6 day treatment
[24] = Homo sapiens, LNCaP, read-out: IC50 LNCaP
[25] = Homo sapiens, HT-29, read-out: IC50 HT-29

SMILES: O=c1[nH]cc(F)c(=O)[nH]1 [Compound 5-FU, reference compound]
- IC50 ([1]; Table 2A, Example 1, read-out: IC50 DU145): 4.5 ± 0.3 µM
- IC50 ([2]; 24 hr treatment, Example 3, read-out: IC50 PC-3 24 hr treatment): 20 to 50 µM
- IC50 ([2]; 4 day treatment, Example 3, read-out: IC50 PC-3 4 day treatment): 10.9 µM
- IC50 ([2]; Table 2A, Example 1, read-out: IC50 PC-3): 10.5 ± 0.6 µM
- IC50 ([3]; Table 2A, Example 1): 2.7 ± 0.6 µM
- IC50 ([4]; Table 2A, Example 1, read-out: IC50 PPC-1): 5.1 ± 0.5 µM
- IC50 ([5]; Table 2A, Example 1, read-out: IC50 LNCaP): 4.1 ± 0.6 µM
- IC50 ([6]; Table 2B, Example 1): 3.6 ± 0.7 µM
- IC50 ([7]; Table 2B, Example 1, read-out: IC50 HT-29): 5.4 ± 1.1 µM
- IC50 ([8]; Table 2B, Example 1, read-out: IC50 CV-1 (Control)): 5.4 ± 0.3 µM

SMILES: C[C@](O)(COc1ccc(N=C=S)cc1)C(=O)Nc1ccc([N+](=O)[O-])c(C(F)(F)F)c1 [Compound V]
- IC50 ([1]; Homo sapiens, DU-145, 24 h, read-out: IC50 DU 145): 62.1 ± 0.6 µM
- IC50 ([1]; Homo sapiens, DU-145, 96 h, read-out: IC50 DU 145): 69.7 ± 6.5 µM
- IC50 [1, 19]: 74.8 ± 1.2 µM
- IC50 ([2]; Homo sapiens, 24 h, read-out: IC50 PC-3): 47.8 ± 4.2 µM
- IC50 ([2]; Homo sapiens, 96 h, read-out: IC50 PC-3): 48.5 ± 10.1 µM
- IC50 [2, 20]: 59 ± 6 µM
- IC50 ([3]; Homo sapiens, 24 h): 54.1 ± 5.5 µM
- IC50 ([3]; Homo sapiens, 96 h): 55 ± 0.8 µM
- IC50 ([3]; Homo sapiens): 56.9 ± 2.9 µM
- IC50 ([4]; Homo sapiens, PPC-1, 24 h, read-out: IC50 PPC-1): 63.7 ± 4.6 µM
- IC50 ([4]; Homo sapiens, PPC-1, 96 h, read-out: IC50 PPC-1): 62.6 ± 4.9 µM
- IC50 [4, 21]: 58.1 ± 5.9 µM
- IC50 ([5]; Homo sapiens, LNCaP, 24 h, read-out: IC50 LNCaP): 19.8 ± 10.5 µM
- IC50 [5, 22]: 39.6 µM
- IC50 ([5]; Homo sapiens, LNCaP, 96 h, read-out: IC50 LNCaP): 12.8 ± 4.1 µM
- IC50 [5, 23]: 33.6 µM
- IC50 [5, 24]: 26 ± 8.3 µM
- Selectivity for the AR-expressing LNCaP prostate cancer cell line ([5]; compared with prostate cancer cell lines not expressing AR, non-prostate cancer cell lines, control cell line): highly selective
- IC50 ([6]; Homo sapiens, TCC-SUP, 24 h): 90.4 ± 2.2 µM
- IC50 ([6]; Homo sapiens, TCC-SUP, 96 h): 78.1 ± 11.2 µM
- IC50 ([6]; Homo sapiens, TCC-SUP): > 100 µM
- IC50 ([7]; Homo sapiens, HT-29, 24 h, read-out: IC50 HT-29): 85.5 ± 4.5 µM
- IC50 ([7]; Homo sapiens, HT-29, 96 h, read-out: IC50 HT-29): 71 ± 1.2 µM
- IC50 [7, 25]: 55 ± 1.7 µM
- IC50 ([8]; Chlorocebus sabaeus, 24 h, read-out: IC50 CV-1): > 100 µM
- IC50 ([8]; Chlorocebus sabaeus, 96 h, read-out: IC50 CV-1): > 100 µM
- IC50 ([9]; MCF7, 24 h, drug incubation time 1 day): 32.7 ± 1.9 µM
- IC50 ([9]; MCF7, 96 h, drug incubation time 4 day): 39.4 ± 5.4 µM
- Enrichment factor LNCaP [10]: 2.000
- Enrichment factor DU 145 [11]: 5.071
- Enrichment factor PC-3 [12]: 2.500
- Enrichment factor PPC-1 [13]: 1.749
- Enrichment factor TSU [14]: 1.167
- Enrichment factor HT-29 [15]: 1.410
- Enrichment factor TCCSUP [16]: 1.176
- Enrichment factor MCF-7 [17]: 1.926
- Enrichment factor CV-1 [18]: 6.548

SMILES: C[C@](O)(CSc1ccc(NC(=O)CBr)cc1)C(=O)Nc1ccc(C#N)c(C(F)(F)F)c1 [R-CTF-T-BA-1]
- IC50 [1, 19]: 3.1 ± 0.1 µM
- IC50 ([2]; Homo sapiens, 24 h, read-out: IC50 PC-3 24 hr treatment): 22.1 µM
- IC50 ([2]; Homo sapiens, 96 h, read-out: IC50 PC-3 4 day treatment): 16.8 µM
- IC50 [2, 20]: 2.6 ± 0.1 µM
- IC50 ([3]; Homo sapiens): 0.6 ± 0.1 µM
- IC50 [4, 21]: 1.3 ± 0.1 µM
- IC50 [5, 22]: 11.2 µM
- IC50 [5, 23]: 8.1 µM
- IC50 [5, 24]: 3.2 ± 0.4 µM
- IC50 ([6]; Homo sapiens, TCC-SUP): 3.8 ± 0.5 µM
- IC50 [7, 25]: 1.6 ± 0.03 µM
- IC50 ([8]; Chlorocebus sabaeus, 24 h, read-out: IC50 CV-1 24 hr treatment): 23.4 ± 1.6 µM
- IC50 ([8]; Chlorocebus sabaeus, 96 h, read-out: IC50 CV-1 4 day treatment): 13.9 µM
- IC50 ([8]; Chlorocebus sabaeus, read-out: IC50 CV-1 (Control)): 10.8 ± 0.5 µM
